# Assay results reported in US20220023271A1, “COMPOSITION FOR PREVENTING OR TREATING CELLULAR SENESCENCE-RELATED DISEASES COMPRISING ZOTAROLIMUS AS ACTIVE INGREDIENT” (RESEARCH COOPERATION FOUNDATION OF YEUNGNAM UNIVERSITY, priority 2018, published 2022).
# What was measured:
# Format in all cases: cell-based
# [1] = system: human dermal fibroblasts (HDF); experiment: CCK-8 cell growth analysis in human fibroblasts
# Experimental: (§1) Each cell was treated in a serum-free culture solution containing 0.5 μM doxorubicin for 4 hours. After washing the cells with a serum-free culture solution, the cells were cultured for 4 days in a culture solution containing 10% FBS, and then cellular aging was confirmed by staining with senescence-associated beta galactosidase (SAβG). After dispensing 2×10^5 cells in a 100 mm culture dish, they were cultured in a 37° C., 5% CO2 incubator. When the cells grew to 80-90% in the culture dish, the cells were removed by treatment with trypsin-EDTA, and the number of cells was measured, and the cell population doubling time (PDT) was measured. After each sample was dissolved in DMSO, young cells, replicative senescent cells, and premature senescent cells treated with doxorubicin were treated with 100 nM zotarolimus, 100 nM rapamycin, 100 nM ABT263, respectively. […] Then, the absorbance was measured at 450 nm using a microplate reader. The degree of cell growth was expressed as a relative value for the absorbance of the control group treated with only DMSO as 100%. […]
# [2] = system: human umbilical vascular endothelial cells (HUVEC); experiment: CCK-8 cell growth analysis in vascular endothelial cells
# Experimental: as §1
# [3] = system: human dermal fibroblasts (HDF); experiment: SAβG activity staining in senescent human fibroblasts; conditions: 4 days; for SAβG activity: 100 nM
# Experimental: Each cell was treated in a serum-free culture solution containing 0.5 μM doxorubicin for 4 hours. After washing the cells with a serum-free culture solution, the cells were cultured for 4 days in a culture solution containing 10% FBS, and then cellular aging was confirmed by staining with senescence-associated beta galactosidase (SAβG). After dispensing 2×10^5 cells in a 100 mm culture dish, they were cultured in a 37° C., 5% CO2 incubator. When the cells grew to 80-90% in the culture dish, the cells were removed by treatment with trypsin-EDTA, and the number of cells was measured, and the cell population doubling time (PDT) was measured. By successively subculturing the cells in the same process as described above, replication aging was induced. PDT of young fibroblasts was 36 hours, PDT of replicative senescent fibroblasts was 12 days, PDT of young vascular endothelial cells was 24 hours, and PDT of replicative senescent vascular endothelial cells was 7 days. After each sample was dissolved in DMSO, young cells, replicative senescent cells, and premature senescent cells treated with doxorubicin were treated with 100 nM zotarolimus, 100 nM rapamycin, 100 nM ABT263, respectively. After incubation for 4 days in a 37° C., 5% CO2 incubator, the degree of cell growth was confirmed by CCK-8 analysis, the degree of cellular aging was confirmed by senescence-related beta-galactosidase (SAβG) staining, The cells were washed with 1× phosphate buffer solution, and fixed with a phosphate buffer solution containing 3.7% (v/v) paraformaldehyde. After adding 1 mg/ml 5-bromo-4-chloro-3-indolyl-6-D-galactoside, 40 mM citric acid-sodium phosphate (pH 6.0), 5 mM potassium ferricyanide, 5 mM potassium ferrocyanide, 150 mM NaCl, and 2 mM MgCl2 solution, it was reacted at 37° C. for 18 hours. It was stained with eosin as a control stain. Cells stained blue in the cytoplasm were identified using an optical microscope. Human fibroblasts were treated with doxorubicin to induce early cellular senescence. […]
smiles,measurement,setting,value
CO[C@H]1C[C@@H]2CC[C@@H](C)[C@@](O)(O2)C(=O)C(=O)N2CCCC[C@H]2C(=O)O[C@H]([C@H](C)C[C@@H]2CC[C@H](n3cnnn3)[C@H](OC)C2)CC(=O)[C@H](C)/C=C(\C)[C@@H](O)[C@@H](OC)C(=O)[C@H](C)C[C@H](C)/C=C/C=C/C=C/1C [zotarolimus],cell growth (CCK-8),"[1]; premature senescent fibroblasts by doxorubicin, 100 nM, 4 days, vs DMSO",significantly decreased
same,cell growth with increasing concentration of zotarolimus,"[1]; young vs replicative senescent fibroblasts, concentration-dependent",more markedly decreased in senescent cells compared to young cells
same,cell growth (CCK-8),"[2]; premature senescent HUVEC by doxorubicin, 100 nM, 4 days, vs DMSO, p<0.01",significantly reduced
same,cell growth with increasing concentration of zotarolimus,[2]; young vs replicative senescent HUVEC,decreased compared to the young cells in a concentration-dependent manner
same,SAβG activity,"[3]; premature senescent fibroblasts by doxorubicin, vs DMSO-treated group",decreased compared to the DMSO-treated group
same,SAβG activity compared with rapamycin,"[3]; replicative senescent fibroblasts, 100 nM each, p<0.05",significantly reduced than that of rapamycin
same,SAβG activity,"[3]; replicative senescent fibroblasts, vs DMSO, p<0.01",significantly reduced
